Measured values reported in article PMC5664379 (2017).

System: G4 DNA [(CG3)2CGC(AG3)2G] (DNA, G4) CGGGCGGGCGCAGGGAGGGG
Test: UV-vis mole-ratio titration, global fit
Settings: buffer pH 7.1, 25 °C; intrinsic, two equivalent anticooperative sites, ω 0.43; stepwise fit equally good: 7.07, 5.79

lg K1-2: 6.79
SMILES: C[n+]1ccc(-c2c3nc(c(-c4cc[n+](C)cc4)c4ccc([nH]4)c(-c4cc[n+](C)cc4)c4nc(c(-c5cc[n+](C)cc5)c5ccc2[nH]5)C=C4)C=C3)cc1
